Source: patent US5849782A, “Methods of inhibiting neurodegenerative diseases” (The General Hospital Corporation, priority 1996, dated 1998)

Key:
Male Sprague-Dawley rats [1] = assay: Body temperature in rats under pentobarbital anesthesia; assay type: in vivo, rat; conditions: 1 h after 50 mg/kg 7-NI i.p., control 36.5±0.1, p<0.02
Method: Stereotaxic Lesion Technique. Male Sprague-Dawley rats (Charles River, Cambridge, Mass.) weighing 300-325 g were anesthetized with pentobarbital (50 mg/kg i.p.) and positioned in a David Kopf stereotaxic instrument with the incisor bar set at 3.3 mm below the intermural line. Malonate, NMDA, KA, and AMPA were dissolved in 0.1M phosphate-buffered saline (pH, 7.4). Intrastriatal injections were made with a 10 μl Hamilton syringe fitted with a 30 gauge blunt-tipped needle into the left striatum at the coordinates 0.5 mm anterior bregma, 2.6 mm lateral to the midline and 5 mm ventral to the dura. Injection volumes were 1 μl (3 μmol malonate). All injections were made over 1 min and the needle was left in place for an additional 1 min before being slowly withdrawn. 7-NI was dissolved and sonicated in peanut oil at a concentration of 10 mg/ml. 50 mg/kg of 7-NI were administered i.p. 30 min before striatal injections of malonate, NMDA, KA and AMPA. […] Nine to ten animals were used per group in each experiment.

rats = assay: Striatal lesions produced by systemic 3-NP; assay type: in vivo, rat
Method: Systemic 3-NP treatment. 3-NP was diluted in water and adjusted to pH 7.4 with NaOH and administered at a dose of 10 mg/kg i.p. every 12 h. With this dosing regimen the animals become acutely ill after 4 to 5 days and show large striatal lesions. (Beal et al. (1993) J. Neurosci. 13:4181-4192.) At the same time points, 25 mg/kg of 7-NI dissolved in peanut oil at a concentration of 10 mg/ml (treated group) or vehicle alone (peanut oil, control group) was administered s.c.. Since there was variability in the times at which animals became ill, they were clinically examined 3 hours after the injections and 1 animal of each group was sacrificed when an animal was acutely ill, regardless of whether it was a vehicle treated control or a 7-NI treated animal. In an initial experiment 12 animals per group were studied. Following sacrifice, striatal lesion size was assessed by TTC staining.
In a second experiment, 5 animals per group were studied with the same treatment paradigm. Since the first experiment had shown by pairwise sacrifice that the vehicle treated animals always became ill before the 7-NI treated animals, a third experimental group of 5 animals was included to determine whether 7-NI treated animals become ill following administration of 3-NP. […] In this experiment animals were deeply anesthetized and transcardially perfused with ice cold saline, followed by phosphate buffered 4% paraformaldehyde (Beal et al. (1991) J. Neurosci. 11:1649-1659). Brains were sectioned at 50 μm intervals on a freezing microtome. Combined staining for Nissl substance and NADPH-diaphorase was performed. Adjacent sections were stained by immunohistochemistry with antibodies against ^8 -hydroxy-2deoxyguanosine.

MAO-B [2] = biological target: T1, MAO-B (Mus musculus, UniProt Q8BW75); assay: MAO-B activity in forebrain mitochondrial fractions of treated mice; assay type: biochemical; conditions: four doses at 2-h intervals: deprenyl 10 mg/kg i.p. or 7-NI 50 mg/kg s.c.; vehicle 5.79±0.44
T1 construct: Crude mitochondrial preparations were obtain from the forebrains; from tissue; host or cells: mouse forebrain, crude mitochondrial fraction (P2 pellet on a discontinuous Ficoll gradient)
T1 sequence (Q8BW75 1-520): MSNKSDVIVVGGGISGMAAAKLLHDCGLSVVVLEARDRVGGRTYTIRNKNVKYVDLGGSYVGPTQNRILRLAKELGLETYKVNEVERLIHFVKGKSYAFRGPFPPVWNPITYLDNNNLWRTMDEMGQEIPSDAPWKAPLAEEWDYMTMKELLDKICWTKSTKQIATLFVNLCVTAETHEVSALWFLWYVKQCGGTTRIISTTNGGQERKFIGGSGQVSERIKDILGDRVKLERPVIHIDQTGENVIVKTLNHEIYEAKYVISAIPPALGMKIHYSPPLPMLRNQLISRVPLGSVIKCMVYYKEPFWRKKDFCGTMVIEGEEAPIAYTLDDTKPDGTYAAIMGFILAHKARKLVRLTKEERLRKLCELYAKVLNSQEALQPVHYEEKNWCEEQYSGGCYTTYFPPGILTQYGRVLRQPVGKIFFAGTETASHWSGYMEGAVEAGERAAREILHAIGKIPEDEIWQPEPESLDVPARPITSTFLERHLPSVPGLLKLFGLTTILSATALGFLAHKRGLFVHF

MAO-B [3] = biological target: T1, MAO-B; assay: MAO-B activity in vitro, mitochondrial fraction of mouse forebrain; assay type: biochemical; conditions: at 1, 10, and 100 μM
Male Sprague-Dawley rats [4] = assay: Spontaneous striatal electrophysiological activity; conditions: 60 minutes after 50 mg/kg 7-NI; urethane anesthetized rats
Method: Electrophysiology. Four male Sprague-Dawley rats weighing 300 to 400 g were used for electrophysiological studies. Animals were anesthetized with urethane 1.5 g/kg i.p. and placed in a stereotaxic apparatus with their body temperatures maintained at 37° C. by a feedback heating pad. A 0.5×0.5 cm craniotomy was made and recording electrodes were placed in the anterior striatum using stereotaxic coordinates and aural monitoring. Following electrode placement the craniotomy was covered with 4% agar in saline and 30 min were allowed for stabilization before recordings were made. The spontaneous activity of multiple units were recorded extracellularly in the striatum, 3-4 mm anterior to the bregma and 3-4 mm lateral to the midline at a depth of 2.5-4.0 mm using commercially available tungsten microelectrodes (4 M.OMEGA. at 1 kHz, F. Haer, Inc.). […] Data acquisition and analysis of mean firing rate was performed using Discovery.COPYRGT., Experimenters WorkBench.COPYRGT. and Personal Scientific Workstation.COPYRGT. software (DataWave Technologies, Longmont, Colo.). We investigated the electrophysiological effects of the NMDA antagonist MK-801 and the NOS inhibitor 7-NI. […] Finally, spontaneous activity was recorded after the NMDA channel mediated activity was blocked by injection of MK-801 (4 mg/kg).

Male Sprague Dawley rats = assay: Salicylate hydroxyl trapping and 3-nitrotyrosine after systemic 3-NP; assay type: in vivo, rat; conditions: 3-NP 20 mg/kg i.p. every 12 h x3; 7-NI 50 mg/kg
Method: Salicylate assay and 3-nitrotyrosine measurements. The salicylate hydroxyl trapping method of Floyd et al. ((1984) supra, Cao et al. (1988) Neurosci. Lett. 88:233-238, and Hall et al. (1993) J. Neurochem. 60:588-594) was used for measuring ^.cndot. OH radicals in striatal tissue following i.p. administration of 3-NP. Male Sprague Dawley rats weighing 125-150 g (n-10 per group) were injected i.p. every 12 h for 3 times with either (i) saline, (ii) 20 mg/kg of 3-NP and peanut oil vehicle, or (iii) 20 mg/kg of 3-NP and 7-NI dissolved in peanut oil. […] Salicylate and its metabolites 2,3 and 2,5 dihydroxybenzoic acid (DHBA) were quantified by HPLC with 16-electrode electrochemical detection (Beal et al. (1990) supra). Salicylate, 2,3 and 2,5 DHBA, tyrosine and 3-nitrotyrosine were measured electrochemically by oxidation at 840, 240, 120 mV, 600 mV, and 840 mV, respectively. The data were expressed as the ratio of 2,3 and 2,5 DHBA to salicylate and 3-nitrotyrosine concentrations for differing brain concentrations of salicylate and tyrosine, which could be a consequence of impairment of the blood-brain barrier (salicylate) or neuronal loss during treatment (tyrosine).

For `O=[N+]([O-])c1cccc2cn[nH]c12` [7-NI, 7-nitroindazole], the body temperature (Male Sprague-Dawley rats [1]) was 35.9±0.26 ° c, the “protection of striatum from 3-NP lesions (Nissl/NADPH-diaphorase histology)” value (rats; 3-NP 10 mg/kg every 12 h with 7-NI, n=5) was “completed protected” and the “striatal lesions produced by 3-NP (TTC staining)” value (rats; 3-NP 10 mg/kg i.p. every 12 h, 7-NI 50 mg/kg every 12 h as printed) was “completely prevented”. For the same compound, the “median accumulative 3-NP dose at first symptoms” value (rats; 12 h) was 130 mg/kg, the “MAO-B activity in forebrain mitochondrial fraction after in vivo treatment” value (MAO-B [2]) was 5.69±0.40 nmol/min/mg of protein and the “inhibition of MAO-B activity in vitro” value (MAO-B [3]) was “did not inhibit”. The “mean spontaneous firing rate in striatum” value (Male Sprague-Dawley rats [4]) was “not significantly different from the baseline”, the “3-NP-induced increase of 2,3 and 2,5 DHBA” value (Male Sprague Dawley rats) was “significantly attenuated” and the “3-NP-induced increase of 3-nitrotyrosine in striatum” value (Male Sprague Dawley rats) was “significantly attenuated”.
